# Several values for one entry are separate records, joined by “and”; a condition that tells them apart may be missing. Identical values can stand only once. Results filed as inconclusive are left out.
# Test system: MX-1 breast xenograft, nude mice, tumor weight T/C
# Assay: NCI In Vivo Anticancer Drug Screen. Data for tumor model Human Mammary Carcinoma MX-1 Xenograft (intrarenal inoculation) in NU/NU Swiss (nude) mice
# Settings: endpoint: mean tumor weight change, higher = larger tumour
# How it was run: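 Tumor-bearing mice were treated with test compound alongside a vehicle-treated control group. Survival or tumor size was measured, and activity is expressed as the treated-group value divided by the control-group value.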
# [1] = dose: 300.0 mg/kg/injection, schedule: Q04DX003 (sc), vehicle: saline
# [2] = dose: 400.0 mg/kg/injection, schedule: Q04DX003 (sc), vehicle: saline
# [3] = dose: 600.0 mg/kg/injection, schedule: Q04DX003 (sc), vehicle: saline
compound,measurement,setting,value
COc1cc(C(=O)c2cc3c(cc2C)OCO3)cc(OC)c1OC,T/C,"dose: 150.0 mg/kg/injection, schedule: Q04DX003 (sc), vehicle: Klucel (hydroxypropylcellulose) (HPC)",46 % of control
same,T/C,"dose: 300.0 mg/kg/injection, schedule: Q04DX003 (sc), vehicle: Klucel (hydroxypropylcellulose) (HPC)",44 % of control
same,T/C,"dose: 600.0 mg/kg/injection, schedule: Q04DX003 (sc), vehicle: Klucel (hydroxypropylcellulose) (HPC)",43 % of control
same,T/C,"dose: 1200.0 mg/kg/injection, schedule: Q04DX003 (sc), vehicle: Klucel (hydroxypropylcellulose) (HPC)",53 % of control
OCC1OC(n2cnc3c2NC=NC[C@H]3O)CC1O (stereo partly specified),T/C,"dose: 1.0 mg/kg/injection, schedule: Q01DX010 (sc), vehicle: water",124 % of control
same,T/C,"dose: 2.0 mg/kg/injection, schedule: Q01DX010 (sc), vehicle: water",41 % of control
same,T/C,"dose: 8.0 mg/kg/injection, schedule: Q01DX010 (sc), vehicle: water",28 % of control
CCOC(=O)C(N)CSC(=O)NC (stereo unspecified),T/C,"dose: 112.0 mg/kg/injection, schedule: Q04DX003 (sc), vehicle: saline",12 % of control
same,T/C,[1],33 % of control
same,T/C,[2],15 % of control
same,T/C,[3],8 % of control
same,T/C,"dose: 800.0 mg/kg/injection, schedule: Q04DX003 (sc), vehicle: saline",3 % of control
CCC(C(=O)O)C(=O)O.[NH-]CC1CCCC[N-]1.[Pt+2],T/C,"dose: 100.0 mg/kg/injection, schedule: Q04DX003 (sc), vehicle: saline",51 % of control
same,T/C,"dose: 200.0 mg/kg/injection, schedule: Q04DX003 (sc), vehicle: saline with Tween-80",-98 % of control
same,T/C,"dose: 200.0 mg/kg/injection, schedule: Q04DX003 (sc), vehicle: saline",20 % of control
same,T/C,"dose: 300.0 mg/kg/injection, schedule: Q04DX003 (sc), vehicle: saline with Tween-80",-98 % of control
same,T/C,"dose: 300.0 mg/kg/injection, schedule: Q04DX003 (sc), vehicle: suspension in saline",14 % of control and 26 % of control
same,T/C,"dose: 400.0 mg/kg/injection, schedule: Q04DX003 (sc), vehicle: saline with Tween-80",-100 % of control
same,T/C,[2],2 % of control
same,T/C,"dose: 400.0 mg/kg/injection, schedule: Q04DX003 (sc), vehicle: suspension in saline",28 % of control and 32 % of control
same,T/C,"dose: 500.0 mg/kg/injection, schedule: Q04DX003 (sc), vehicle: saline with Tween-80",-100 % of control
same,T/C,"dose: 500.0 mg/kg/injection, schedule: Q04DX003 (sc), vehicle: suspension in saline",3 % of control and 20 % of control
CC[N](CC)[Ge]([CH2]C)[CH2]C.CC[N](CC)[Ge]([CH2]C)[CH2]C,T/C,"dose: 12.5 mg/kg/injection, schedule: Q01DX010 (sc), vehicle: saline",190 % of control
same,T/C,"dose: 25.0 mg/kg/injection, schedule: Q01DX010 (sc), vehicle: saline",106 % of control
same,T/C,"dose: 50.0 mg/kg/injection, schedule: Q01DX010 (sc), vehicle: saline",106 % of control
COC1C(/C=C/C(C)=O)OC2OC(C)(C)OC21 (stereo unspecified),T/C,"dose: 75.0 mg/kg/injection, schedule: Q04DX003 (sc), vehicle: suspension in saline",97 % of control
same,T/C,"dose: 150.0 mg/kg/injection, schedule: Q04DX003 (sc), vehicle: suspension in saline",160 % of control
same,T/C,"dose: 600.0 mg/kg/injection, schedule: Q04DX003 (sc), vehicle: suspension in saline",82 % of control
same,T/C,"dose: 1200.0 mg/kg/injection, schedule: Q04DX003 (sc), vehicle: suspension in saline",63 % of control
CC1=CC2C(O)(CC(CO)=CC3C4C(C)(C)C4(OC(=O)c4ccccc4)C(OC(=O)c4ccccc4)C(C)C32O)C1=O (stereo unspecified),T/C,"dose: 2.5 mg/kg/injection, schedule: Q04DX003 (sc), vehicle: saline with Tween-80",83 % of control
same,T/C,"dose: 5.0 mg/kg/injection, schedule: Q04DX003 (sc), vehicle: saline with Tween-80",70 % of control
same,T/C,"dose: 10.0 mg/kg/injection, schedule: Q04DX003 (sc), vehicle: saline with Tween-80",90 % of control
Cn1cnc([N+](=O)[O-])c1S(=O)(=O)NCN1CCOCC1,T/C,"dose: 25.0 mg/kg/injection, schedule: Q01DX010 (sc), vehicle: Klucel (hydroxypropylcellulose) (HPC)",94 % of control
same,T/C,"dose: 50.0 mg/kg/injection, schedule: Q01DX010 (sc), vehicle: Klucel (hydroxypropylcellulose) (HPC)",76 % of control
same,T/C,"dose: 100.0 mg/kg/injection, schedule: Q01DX010 (sc), vehicle: Klucel (hydroxypropylcellulose) (HPC)",94 % of control
same,T/C,"dose: 200.0 mg/kg/injection, schedule: Q01DX010 (sc), vehicle: Klucel (hydroxypropylcellulose) (HPC)",78 % of control
CCN(CC)CCn1[nH]c2c3ccc(=O)cc3sc3c(NCCN)ccc1c32,T/C,"dose: 6.25 mg/kg/injection, schedule: Q04DX003 (ip), vehicle: water",73 % of control
same,T/C,"dose: 12.5 mg/kg/injection, schedule: Q04DX003 (ip), vehicle: water",63 % of control
Cc1ccccc1CN1C2=NCCN2C(=O)C2=C1CCN(S(=O)(=O)c1ccc(Cl)c(S(N)(=O)=O)c1)C2,T/C,[1],59 % of control
same,T/C,[3],122 % of control
same,T/C,"dose: 1200.0 mg/kg/injection, schedule: Q04DX003 (sc), vehicle: saline",109 % of control
